The values that follow come from patent publication US10975114B2, “Bis 2′-5′-RR-(3′F-A)(3′F-A) cyclic dinucleotide compound and uses thereof” (ADURO BIOTECH, INC., priority 2017, dated 2021).

Bounds are passed on as bounds.

The target of test [1] is T1, hSTING REF allele (Homo sapiens, UniProt Q86WV6).
T1 construct: made in house; host or cells: BL21 Rosetta 2 (DE3) E. coli
As to the kind of experiment: ITC binding assay, hSTING REF allele. Particulars: 25° C., protein 0.1 mM, ligand 0.35 mM. The procedure: (§1) The WT and REF proteins were similarly prepared for use in an ITC binding assay. Expression plasmids were transformed into BL21 Rosetta 2 (DE3) (EMD Millipore) E. coli cells for protein expression. 50 ml starter cultures were grown overnight in 2×YT supplemented with 50 μg/ml kanamycin and 30 μg/ml chloramphenicol. Multi-liter large scale cultures of the same growth media as the starter were inoculated at a ratio of 1:1,000 (V/V) and allowed to grow at 37° C. to an optical density of 0.6, cultures were then shifted to 18° C. Protein expression was induced by the addition of isopropyl β-D-1-thiogalactopyranoside to a final concentration of 0.3 mM. Protein expression was allowed to proceed for 18-24 hrs. Pelleted cells were resuspended in 50 mM Tris pH 7.5, 500 mM NaCl, 10% glycerol, 20 mM imidazole, 1 mM TCEP and complete protease inhibitor cocktail (Sigma). Cells were lysed by sonication (Branson) and insoluble material was removed by centrifugation. Proteins were purified on Ni-NTA resin and concentrated to >10 mg/ml. 6×H-SUMO-STING LBD was further purified by gel filtration chromatography using a High Load 26/600 Superdex 75 column (GE Healthcare) in a buffer of 20 mM Tris pH 7.5, 150 mM NaCl, 5% glycerol and 1 mM TCEP. Peak fractions were concentrated to between 10-15 mg/ml via ultrafiltration aliquoted and flash frozen in liquid nitrogen and stored at […]
The resulting amino acid sequences for the STING REF allele is as follows: • Allele Name: REF • Amino Acid Sequence:
(§2) Proteins were dialyzed overnight in 20 mM HEPES pH 7.5, 150 mM NaCl. Insoluble material was removed by centrifugation at 31,000×g. The invention compound 2′2′-RR-(3′F-A)(3′F-A) and comparison STING agonists 3′3′-RR-(2′F-A)(2′F-A); 2′3′-RR-(3′F-A)(2′F-A) were resuspended in dialysis buffer. The concentration of both the protein and ligands were checked by spectroscopy and adjusted if necessary.
(§3) STING protein was added to the ITC sample cell at a final concentration of 0.1 mM. The CDN ligand was at a final concentration of 0.35 mM in the syringe. […]

The subject of test [2] is THP1 cells (hSTING HAQ allele). As to the kind of experiment: THP1-Dual IRF-3 luciferase reporter assay without digitonin. In kind it is cell-based, human. The settings on record: 30 min compound incubation, overnight readout of secreted luciferase. As for the experimental part: Cells were washed with fresh media and incubated for 30 min at 37° C. with 5% CO2 with compounds in 3-fold titration steps from 2,000 to 0.0338 μM in PB buffer (50 mM 4-(2-hydroxyethyl)-1-piperazineethanesulfonic acid, 100 mM KCl, 3 mM MgCl2, 0.1 mM dithiothreitol, 85 mM sucrose, 1 mM ATP, 0.1 mM GTP and 0.2% bovine serum albumin). After 30 minutes, cells were washed and fresh RPMI media containing 10% FBS was added, and cells were incubated at 37° C. with 5% CO2. Cell culture supernatants from each sample were collected after overnight incubation, and 10 μl of the cell culture supernatants was added to 50 μl QUANTI-Luc reagent (Invivogen). Type I interferon activation was determined by measuring secreted luciferase levels on a SpectraMax M3 spectrophotometer (Molecular Devices). The EC50 value for the same compounds as tested in Example 4 was determined from the dose-response curve for the 10 concentrations from the serial dilution of the compounds in this assay.

Test [3] has as its system 4T1 mammary carcinoma. The test is described as follows: Tumor-specific T cells in blood of 4T1 mice (AH1 tetramer flow cytometry). Format: in vivo, BALB/c mice. Particulars: day 7 post IT injection, 0.1, 1 and 10 μg IT doses, compared to HBSS. As for the experimental part: To assess the ability of 2′2′-RR-(3′F-A)(3′F-A) to promote anti-tumor immunity in a murine tumor model, 6-8 week old female BALB/c mice (n=8/group) were implanted in both the left and the right flanks with 4T1 mammary carcinoma cells (2×10^5 cells in 100 μL PBS). Mice were treated with 2′2′-RR-(3′F-A)(3′F-A) at 0.1, 1, 10 and 100 μg in a total volume of 40 μL HBSS and compared to Hank's Balanced Salt Solution (HBSS) vehicle control. Compound was administered when tumors reached a volume of approximately 40-50 mm^3 on day 8 post tumor implantation (indicated by dotted line on the x-axis in tumor growth graphs). The compound was administered by a single […] injection into the center of the tumor (intratumoral, IT) using a 27 gauge needle. Tumors were measured twice weekly.
Lympholyte (Cedarlane) gradient-purified PBMCs (˜1×10^6) were pre-incubated with anti-CD16/32 monoclonal antibody to block potential non-specific binding and labeled with murine T-Select H-2L^d MuLV gp70 Tetramer-[…]-PE (SEQ ID NO: 20, AH1 peptide with PE fluorescent label, MBL), anti-CD4-BUV737 (RMA4-5), anti-CD8α-BUV395 (53-6.7) (BD Biosciences); anti-CD90.2 BV510 (30-H12) (BioLegend) and the Fixable LIVE/DEAD Near-IR viability dye (ThermoFisher). Data were acquired using a LSRFortessa X-20 cytometer with FACSDiva software (BD) and analyzed with FlowJo software (Tree Star).
Background: In flow cytometry, cells or beads pass a laser one at a time.

Test [4] deals with T2, hSTING WT (Homo sapiens, UniProt Q86WV6, H232R).
T2 construct: made in house; host or cells: BL21 Rosetta 2 (DE3) E. coli
As to the kind of experiment: ITC binding assay, hSTING WT. Particulars: 25° C., protein 0.1 mM, ligand 0.35 mM. As for the experimental part: as §1
The resulting amino acid sequence for the STING WT allele is as follows: • Allele Name: WT • Amino Acid Sequence:
as §2, §3

`Nc1ncnc2c1ncn2[C@@H]1O[C@@H]2CO[P@@](=O)(S)O[C@@H]3[C@H](F)[C@@H](CO[P@@](=O)(S)O[C@@H]1[C@@H]2F)O[C@H]3n1cnc2c(N)ncnc21` [2′2′-RR-(3′F-A)(3′F-A), (1S,3R,6R,8R,9S,11R,14R,16R,17R,18R)-8,16-bis(6-amino-9H-purin-9-yl)-17,18-difluoro-3,11-dimercapto-2,4,7,10,12,15-hexaoxa-3,11-diphosphatricyclo[12.2.1.1^6,9]octadecane 3,11-dioxide]: the Kd in test [1] amounted to 170 nM; in test [4], 98 nM. For the same compound, the EC50 in test [2] was 16600 nM; in test [2] (Homo sapiens, THP-1, 0.5 h) it was < 20000 nM. Further, in test [3], the “frequency of tumor-specific systemic T cells” value is given as “significantly higher frequency”.

As a reminder, the Kd is the equilibrium constant for the complex coming apart. Higher therefore signals a looser complex. The term EC50 denotes the concentration needed to bring the measured effect to its halfway point.
